One data set relates to P. aeruginosa biofilm. The experiment in a line: Pre-formed biofilm viability assessment with tetracycline.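 As to biofilm recovery, combination treatment: percent recovery versus no treatment controls after 20 Hours.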 The format is cell-based. How it is done: (§1) Lead agents were screened for bactericidal activity as described previously (Van Horn, et al. J. Med. Chem. 2014, 57, 3075-3093; […], et al. J. Med. Chem. 2015, 58, 3340-3355), with the following modifications. […] Biofilm experiments were performed similar to those described previously ([…], et al. J. Med. Chem. 2015, 58, 3340-3355; von Salm, et al. Org. Lett. 2016, 18, 2596-2599), with the following modifications.

Data set [1] has as its system P. aeruginosa. The experiment in a line: Checkerboard potentiation assay with chloramphenicol. Particulars: increasing EPI concentration, dose response. The data set is classed as cell-based. How it is done:
(§2) The bacterial strains used in this study are multi-drug resistant clinical isolates that have previously been described (TABLE 2) (Fleeman, et al. J. Med. Chem. 2015, 58, 3340-3355). Organisms were grown in tryptic soy broth (TSB) for overnight cultures, and cation adjusted Mueller Hinton broth (CA-MH II) was used for experimental procedures. All incubations were performed at 37° C.
Scaffold ranking library samples and individual polyamines were screened using checkerboard inhibitory assays to assess the potentiation of tetracycline and chloramphenicol. The test utilized a 96-well plate microtiter assay where the concentration of the scaffold or individual polyamine was decreased from 25 μg mL^−1 to 0.8 μg mL^−1 (average molarity of 65 μM to 4 μM) along the rows, and the concentration of tetracycline or chloramphenicol was increased from 0.4 μM to 100 μM across the columns. Plates were incubated statically at 37° C. for 20 hours, and the optical density (OD600) was determined using a Synergy 2 plate reader (Biotek). […]
Potentiation was quantified using a mathematical model developed by our group to assess the ability of library samples and individual compounds to effectively enhance the activity of tetracycline or chloramphenicol (Hoel, D. G. Statistical Aspects of Chemical Mixtures. Methods for assessing the effects of mixtures of chemicals. 1987, New York). […]

The subject of data set [2] is P. aeruginosa. Nature of the data set: Bactericidal assessment with tetracycline. The format is cell-based. How it is done: as §1
For another data set, the system named is Hek293T cells. The experiment in a line: MTT cytotoxicity assay. The data set is classed as cell-based, human. Conditions: 25 μg mL^−1, 48 hours. On the procedure: To assess toxicity of polyamine compounds we used HepG2 human liver carcinoma cells and Hek293T human embryonic kidney epithelial cells. […] J. Med. Chem. 2015, 58, 3340-3355). […] Cells were then incubated for 48 hours at 37° C. with 5% CO2. Following this, viability was assessed by the addition of MTT and measuring the OD570 in a Biotek plate reader. Percent recovery was determined compared to no drug controls.

Data set [3] concerns tetracycline resistant strain of P. aeruginosa. The experiment in a line: Checkerboard potentiation assay with tetracycline. The format is cell-based. On the procedure:
as §2
Scaffold ranking library samples and individual polyamines were screened using checkerboard inhibitory assays to assess the potentiation of tetracycline and chloramphenicol. The test utilized a 96-well plate microtiter assay where the concentration of the scaffold or individual polyamine was decreased from 25 μg mL^−1 to 0.8 μg mL^−1 (average molarity of 65 μM to 4 μM) along the rows, and the concentration of tetracycline or chloramphenicol was increased from 0.4 μM to 100 μM across the columns. Plates were incubated statically at 37° C. for 20 hours, and the optical density (OD600) was determined using a Synergy 2 plate reader (Biotek). Potentiation modeling (detailed below) was performed to determine fold change in the 50% and 90% effective concentration of tetracycline or chloramphenicol.
Potentiation was quantified using a mathematical model developed by our group to assess the ability of library samples and individual compounds to effectively enhance the activity of tetracycline or chloramphenicol (Hoel, D. G. Statistical Aspects of Chemical Mixtures. Methods for assessing the effects of mixtures of chemicals. 1987, New York). […] In this way, only libraries and compounds that potentiated tetracycline or chloramphenicol activity were pursued. The model is based on the following equation for modeling the percentage activity of a mixture of two agents with independent action (Hoel, et al. Statistical Aspects of Chemical Mixtures. Methods for assessing the effects of mixtures of chemicals. 1987, New York): %Antibiotic & Comp(x1,x2)=%Antibiotic(x1)+%Comp(x2)−%Antibiotic(x1)·%Comp(x2)
Here, x1 and x2 are the concentrations of antibiotic (tetracycline or chloramphenicol) and library/compound (Comp) tested, respectively. This equation can be rearranged to model the effective percent activity (EC) of the antibiotic alone, after accounting for compound activity:
[formula] Thus, the model-adjusted checkerboards show the antibiotic activity post-potentiation, and from that one can determine the true change in MIC.

The mark [4] stands for this setting: 50 μM tetracycline + MPC of EPI.

A value given as a limit tells only on which side of the number the result lay.

`CNCCCC[C@H](CN)NC[C@H](Cc1ccccc1)NCCc1ccccc1` [TPI 266, (R)—N^6-methyl-N^2—((S)-2-(phenethylamino)-3-phenylpropyl)hexane-1,2,6-triamine]: the figures for the “biofilm recovery, combination treatment” value in the data set with P. aeruginosa biofilm (25 μM tetracycline + MPC of EPI) and with P. aeruginosa biofilm (setting [4]) were 1% and 0.6%, respectively. The “biofilm cells recovered, EPI alone” value with P. aeruginosa biofilm (25 μg mL^−1 (MPC), no tetracycline) is 92%. In addition, in the data set with P. aeruginosa [1], the “potentiation of chloramphenicol EC90” value is given as “highest potentiation values”. The “percent recovery, combination treatment” value with P. aeruginosa [2] (12 μM tetracycline + MPC of EPI) came to 0.76%; with P. aeruginosa [2] (setting [4]), 0.01%. In addition, in the data set on Hek293T cells, the “percent recovery of Hek293T cells compared to solvent only controls” value is listed as 72%. Also, the “FP* (Fold Potentiation, EC50)” value in data set [3] (EC50 tetracycline with no TPI/with TPI, 25 μg mL^−1 TPI) came to 6.8 fold. Further, in data set [3] (EC90 tetracycline with no TPI/with TPI, 25 μg mL^−1 TPI), the “FP^# (Fold Potentiation, EC90)” value was determined as 5.8 fold. Besides, in data set [3] (Table 1, tetracycline EC50), the “FP*^c (Fold Potentiation, EC50)” value came out at 6.8 fold. Moreover, in data set [3] (Table 1, tetracycline EC90), the “FP^#c (Fold Potentiation, EC90)” value worked out at 5.8 fold. Moreover, the “TPI (inhibitory concentration of the polyamines alone to produce EC values)” value in data set [3] (polyamine alone, no tetracycline, 25 μg mL^−1 highest concentration tested) was above 25 µg/mL.

(Values after patent US11117856B2, “Polyamine compounds targeting the efflux pumps of multi-drug resistant bacterial pathogens and methods of using the same” (UNIVERSITY OF SOUTH FLORIDA, priority 2016, dated 2021).)
